Reference: patent US12343326B2, “Psychoactive medicines and their use for treating psychiatric and neurological conditions and disorders” (Transcend Therapeutics, Inc., priority 2021, dated 2025)

Key:
Assay in all cases: β-arrestin based GPCR screen (PathHunter / GPCRmax), antagonist mode
168 GPCRs [1] = target: 168 GPCRs (Homo sapiens, UniProt P35462)
168 GPCRs [2] = target: 168 GPCRs (Homo sapiens, UniProt P08913); conditions: ADRA2A, Antagonist
168 GPCRs [3] = target: 168 GPCRs (Homo sapiens, UniProt P51686); conditions: CCR9, Antagonist
168 GPCRs (Homo sapiens, UniProt P51686), sequence (P51686 whole entry): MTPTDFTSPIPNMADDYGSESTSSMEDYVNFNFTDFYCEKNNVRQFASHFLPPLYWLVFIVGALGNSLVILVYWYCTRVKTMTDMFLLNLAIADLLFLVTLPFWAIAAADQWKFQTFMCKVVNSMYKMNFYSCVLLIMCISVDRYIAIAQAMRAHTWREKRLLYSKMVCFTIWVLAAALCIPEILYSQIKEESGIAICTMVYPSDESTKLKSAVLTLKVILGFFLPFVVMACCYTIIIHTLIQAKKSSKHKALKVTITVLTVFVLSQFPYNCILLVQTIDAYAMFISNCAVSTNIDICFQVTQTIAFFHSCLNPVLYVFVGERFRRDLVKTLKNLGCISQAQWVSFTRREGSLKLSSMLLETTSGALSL

168 GPCRs [4] = target: 168 GPCRs (Homo sapiens, UniProt Q96G91)
168 GPCRs (Homo sapiens, UniProt Q96G91), sequence (Q96G91 whole entry): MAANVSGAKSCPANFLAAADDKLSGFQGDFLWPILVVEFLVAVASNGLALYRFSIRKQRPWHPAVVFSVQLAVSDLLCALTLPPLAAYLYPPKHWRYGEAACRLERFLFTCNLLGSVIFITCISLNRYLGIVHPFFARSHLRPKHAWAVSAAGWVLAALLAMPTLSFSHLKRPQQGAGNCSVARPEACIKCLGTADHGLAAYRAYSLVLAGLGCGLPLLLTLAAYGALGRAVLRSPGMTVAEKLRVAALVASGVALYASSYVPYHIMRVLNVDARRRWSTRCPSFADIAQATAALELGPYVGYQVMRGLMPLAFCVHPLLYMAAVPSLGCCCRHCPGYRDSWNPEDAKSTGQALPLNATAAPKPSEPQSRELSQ

168 GPCRs [5] = target: 168 GPCRs (Homo sapiens, UniProt O43613)
168 GPCRs (Homo sapiens, UniProt O43613), sequence (O43613 whole entry): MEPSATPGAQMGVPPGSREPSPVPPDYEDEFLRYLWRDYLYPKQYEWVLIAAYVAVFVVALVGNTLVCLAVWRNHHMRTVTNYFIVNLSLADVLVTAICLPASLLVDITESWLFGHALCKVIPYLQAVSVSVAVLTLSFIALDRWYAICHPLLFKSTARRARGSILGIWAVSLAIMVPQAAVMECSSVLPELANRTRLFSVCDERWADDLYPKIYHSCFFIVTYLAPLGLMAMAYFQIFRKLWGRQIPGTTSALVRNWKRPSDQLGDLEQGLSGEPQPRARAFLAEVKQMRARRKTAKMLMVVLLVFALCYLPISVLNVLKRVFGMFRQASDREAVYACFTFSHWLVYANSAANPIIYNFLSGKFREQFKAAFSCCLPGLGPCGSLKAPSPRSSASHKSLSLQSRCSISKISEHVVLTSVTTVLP

168 GPCRs [6] = target: 168 GPCRs (Homo sapiens, UniProt P35414); conditions: AGTRL1, Antagonist
168 GPCRs (Homo sapiens, UniProt P35414), sequence (P35414 whole entry): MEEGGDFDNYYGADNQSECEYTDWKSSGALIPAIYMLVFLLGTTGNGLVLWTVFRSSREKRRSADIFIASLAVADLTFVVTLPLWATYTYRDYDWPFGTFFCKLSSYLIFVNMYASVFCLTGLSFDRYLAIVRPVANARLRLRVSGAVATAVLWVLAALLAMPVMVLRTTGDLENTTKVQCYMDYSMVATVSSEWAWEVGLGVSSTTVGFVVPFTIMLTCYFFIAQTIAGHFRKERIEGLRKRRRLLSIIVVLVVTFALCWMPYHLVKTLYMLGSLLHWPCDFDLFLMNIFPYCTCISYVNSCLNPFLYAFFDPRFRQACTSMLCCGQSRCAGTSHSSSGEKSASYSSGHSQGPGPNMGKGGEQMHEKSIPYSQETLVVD

168 GPCRs [7] = target: 168 GPCRs (Homo sapiens, UniProt P30550); conditions: GRPR
168 GPCRs (Homo sapiens, UniProt P30550), sequence (P30550 whole entry): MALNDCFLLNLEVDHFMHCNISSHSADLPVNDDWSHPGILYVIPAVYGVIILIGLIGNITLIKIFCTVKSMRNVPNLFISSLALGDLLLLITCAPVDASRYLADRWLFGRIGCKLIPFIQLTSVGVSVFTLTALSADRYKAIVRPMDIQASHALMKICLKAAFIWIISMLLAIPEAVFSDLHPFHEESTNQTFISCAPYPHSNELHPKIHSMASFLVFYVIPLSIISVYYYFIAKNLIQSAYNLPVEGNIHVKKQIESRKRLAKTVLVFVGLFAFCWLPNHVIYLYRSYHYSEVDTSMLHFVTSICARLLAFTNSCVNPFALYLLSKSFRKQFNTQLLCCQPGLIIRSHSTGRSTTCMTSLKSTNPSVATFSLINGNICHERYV

168 GPCRs [8] = target: 168 GPCRs (Homo sapiens, UniProt P32246); conditions: CCR1, Antagonist
168 GPCRs (Homo sapiens, UniProt P32246), sequence (P32246 whole entry): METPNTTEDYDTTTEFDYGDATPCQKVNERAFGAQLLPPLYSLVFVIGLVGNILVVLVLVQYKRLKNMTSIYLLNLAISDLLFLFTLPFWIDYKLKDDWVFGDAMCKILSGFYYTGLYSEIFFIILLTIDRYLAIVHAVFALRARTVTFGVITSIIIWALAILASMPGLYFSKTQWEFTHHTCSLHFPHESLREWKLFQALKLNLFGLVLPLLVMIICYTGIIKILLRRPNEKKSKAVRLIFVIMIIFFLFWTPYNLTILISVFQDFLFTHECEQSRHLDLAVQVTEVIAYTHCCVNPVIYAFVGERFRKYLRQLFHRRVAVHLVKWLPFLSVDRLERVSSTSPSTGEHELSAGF

168 GPCRs [9] = target: 168 GPCRs (Homo sapiens, UniProt P22888); conditions: LHCGR
168 GPCRs (Homo sapiens, UniProt P22888), sequence (P22888 27-699): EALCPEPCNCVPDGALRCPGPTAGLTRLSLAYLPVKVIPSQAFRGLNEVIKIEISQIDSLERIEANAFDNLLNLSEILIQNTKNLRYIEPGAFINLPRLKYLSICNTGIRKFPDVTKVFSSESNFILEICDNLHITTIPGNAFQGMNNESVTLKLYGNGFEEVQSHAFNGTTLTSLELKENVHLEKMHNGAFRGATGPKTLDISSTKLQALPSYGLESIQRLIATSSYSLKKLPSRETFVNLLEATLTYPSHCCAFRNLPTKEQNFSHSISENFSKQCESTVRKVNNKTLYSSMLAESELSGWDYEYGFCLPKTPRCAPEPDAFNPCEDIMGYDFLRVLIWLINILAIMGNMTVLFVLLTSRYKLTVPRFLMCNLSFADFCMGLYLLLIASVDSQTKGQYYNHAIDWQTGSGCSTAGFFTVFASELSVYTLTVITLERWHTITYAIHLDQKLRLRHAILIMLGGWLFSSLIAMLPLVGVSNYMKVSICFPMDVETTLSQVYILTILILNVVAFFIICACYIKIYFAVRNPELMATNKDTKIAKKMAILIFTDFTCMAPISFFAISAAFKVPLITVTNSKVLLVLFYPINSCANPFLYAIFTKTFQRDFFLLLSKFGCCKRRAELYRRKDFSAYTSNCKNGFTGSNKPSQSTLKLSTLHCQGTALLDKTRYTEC

168 GPCRs [10] = target: 168 GPCRs (Homo sapiens, UniProt P25021)
168 GPCRs (Homo sapiens, UniProt P25021), sequence (P25021 whole entry): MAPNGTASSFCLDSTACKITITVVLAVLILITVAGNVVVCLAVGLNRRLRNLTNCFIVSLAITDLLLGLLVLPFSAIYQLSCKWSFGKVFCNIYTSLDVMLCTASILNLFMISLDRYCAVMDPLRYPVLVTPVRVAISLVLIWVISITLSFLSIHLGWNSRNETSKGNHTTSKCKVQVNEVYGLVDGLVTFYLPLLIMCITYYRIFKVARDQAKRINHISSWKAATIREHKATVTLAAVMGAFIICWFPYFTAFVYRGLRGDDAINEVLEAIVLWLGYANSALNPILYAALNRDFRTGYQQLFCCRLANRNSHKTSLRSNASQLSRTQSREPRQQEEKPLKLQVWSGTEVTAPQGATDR

168 GPCRs [11] = target: 168 GPCRs (Homo sapiens, UniProt O43614)
168 GPCRs (Homo sapiens, UniProt O43614), sequence (O43614 whole entry): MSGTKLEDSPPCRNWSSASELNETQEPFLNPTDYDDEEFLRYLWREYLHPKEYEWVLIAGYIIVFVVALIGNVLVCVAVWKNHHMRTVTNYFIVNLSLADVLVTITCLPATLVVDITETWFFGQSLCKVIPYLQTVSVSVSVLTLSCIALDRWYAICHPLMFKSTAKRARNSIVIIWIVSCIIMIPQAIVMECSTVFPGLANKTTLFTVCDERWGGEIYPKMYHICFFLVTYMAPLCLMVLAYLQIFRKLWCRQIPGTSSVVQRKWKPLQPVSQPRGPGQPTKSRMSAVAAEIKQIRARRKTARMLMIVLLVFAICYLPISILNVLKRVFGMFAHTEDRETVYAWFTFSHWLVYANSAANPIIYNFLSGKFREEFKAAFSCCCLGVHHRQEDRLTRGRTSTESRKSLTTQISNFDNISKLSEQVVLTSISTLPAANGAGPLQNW

168 GPCRs [12] = target: 168 GPCRs (Homo sapiens, UniProt P43115)
168 GPCRs (Homo sapiens, UniProt P43115), sequence (P43115 whole entry): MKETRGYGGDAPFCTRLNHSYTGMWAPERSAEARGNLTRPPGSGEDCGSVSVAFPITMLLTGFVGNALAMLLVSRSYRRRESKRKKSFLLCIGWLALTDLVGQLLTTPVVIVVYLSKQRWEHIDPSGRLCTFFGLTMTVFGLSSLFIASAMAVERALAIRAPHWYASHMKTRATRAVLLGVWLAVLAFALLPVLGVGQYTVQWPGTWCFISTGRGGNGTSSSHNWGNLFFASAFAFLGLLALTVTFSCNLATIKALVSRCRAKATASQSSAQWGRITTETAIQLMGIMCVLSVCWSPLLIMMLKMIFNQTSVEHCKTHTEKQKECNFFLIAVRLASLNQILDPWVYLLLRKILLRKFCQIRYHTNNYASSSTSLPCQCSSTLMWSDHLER

168 GPCRs [13] = target: 168 GPCRs (Homo sapiens, UniProt P41146)
168 GPCRs [14] = target: 168 GPCRs (Homo sapiens, UniProt O14842)
168 GPCRs [15] = target: T1, 168 GPCRs (Homo sapiens, UniProt P32247); conditions: BRS3, Antagonist
T1 sequence (P32247 1-399): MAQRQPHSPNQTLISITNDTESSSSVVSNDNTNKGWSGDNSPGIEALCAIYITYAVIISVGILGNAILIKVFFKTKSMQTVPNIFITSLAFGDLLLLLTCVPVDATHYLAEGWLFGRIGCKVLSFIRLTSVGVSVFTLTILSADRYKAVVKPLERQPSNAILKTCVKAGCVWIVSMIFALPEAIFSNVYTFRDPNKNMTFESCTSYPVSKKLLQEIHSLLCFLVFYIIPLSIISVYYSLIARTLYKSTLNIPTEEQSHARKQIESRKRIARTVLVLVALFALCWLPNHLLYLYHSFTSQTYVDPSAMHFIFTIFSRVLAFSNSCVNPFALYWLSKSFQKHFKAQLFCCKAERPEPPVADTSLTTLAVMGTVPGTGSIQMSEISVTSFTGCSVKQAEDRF

168 GPCRs [16] = target: 168 GPCRs (Homo sapiens, UniProt O43603)
168 GPCRs (Homo sapiens, UniProt O43603), sequence (O43603 whole entry): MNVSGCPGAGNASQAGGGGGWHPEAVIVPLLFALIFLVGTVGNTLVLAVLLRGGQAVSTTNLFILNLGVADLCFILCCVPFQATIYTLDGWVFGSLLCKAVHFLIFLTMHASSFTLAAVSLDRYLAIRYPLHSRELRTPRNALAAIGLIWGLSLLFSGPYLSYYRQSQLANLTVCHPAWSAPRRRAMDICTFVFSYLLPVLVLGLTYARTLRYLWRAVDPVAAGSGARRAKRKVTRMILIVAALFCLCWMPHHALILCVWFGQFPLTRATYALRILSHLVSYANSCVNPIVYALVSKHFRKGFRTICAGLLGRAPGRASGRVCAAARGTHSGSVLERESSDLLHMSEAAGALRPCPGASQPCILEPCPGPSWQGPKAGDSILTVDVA

168 GPCRs [17] = target: 168 GPCRs (Homo sapiens, UniProt P21918)
168 GPCRs [18] = target: 168 GPCRs (Homo sapiens, UniProt Q9H1C0)
168 GPCRs (Homo sapiens, UniProt Q9H1C0), sequence (Q9H1C0 whole entry): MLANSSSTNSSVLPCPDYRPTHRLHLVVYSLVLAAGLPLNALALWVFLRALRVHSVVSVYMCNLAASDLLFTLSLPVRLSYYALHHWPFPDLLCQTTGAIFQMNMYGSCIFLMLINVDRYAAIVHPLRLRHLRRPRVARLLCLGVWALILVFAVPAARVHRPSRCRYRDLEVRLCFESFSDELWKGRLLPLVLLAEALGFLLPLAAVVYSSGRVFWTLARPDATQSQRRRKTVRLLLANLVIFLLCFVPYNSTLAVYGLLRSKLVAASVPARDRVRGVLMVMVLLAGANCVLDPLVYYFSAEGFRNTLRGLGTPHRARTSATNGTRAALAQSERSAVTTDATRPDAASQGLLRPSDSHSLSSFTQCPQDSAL

168 GPCRs [19] = target: 168 GPCRs (Homo sapiens, UniProt P32238); conditions: CCKAR, Antagonist

Q: Which results are given for CNC(C)C(=O)c1ccc2c(c1)OCO2 (centres unmarked) [methylone, 3,4-methylenedioxy-N-methylcathinone]?
A: activity at 10 µM (168 GPCRs [1]; DRD3, Antagonist mode, 10 uM): -17.8%; activity at 1 µM (168 GPCRs [1]; DRD3, Antagonist, 1 uM): -12%; activity at 1 µM (168 GPCRs [2]; 1 uM): -4.6%; activity at 10 µM (168 GPCRs [2]; 10 uM): 1.9%; activity at 1 µM (168 GPCRs [3]; 1 uM): 2.9%; activity at 10 µM (168 GPCRs [3]; 10 uM): -9.9%; activity at 10 µM (168 GPCRs [4]; P2RY11, Antagonist mode, 10 uM): 6.6%; activity at 1 µM (168 GPCRs [4]; P2RY11, Antagonist, 1 uM): 2.7%; activity at 10 µM (168 GPCRs [5]; HCRTR1, Antagonist mode, 10 uM): 1.2%; activity at 1 µM (168 GPCRs [5]; HCRTR1, Antagonist, 1 uM): 2.3%; activity at 1 µM (168 GPCRs [6]; 1 uM): -3.3%; activity at 10 µM (168 GPCRs [6]; 10 uM): -4.1%; activity at 10 µM (168 GPCRs [7]; Antagonist mode, 10 uM): -1.4%; activity at 1 µM (168 GPCRs [7]; Antagonist, 1 uM): 0.7%; activity at 1 µM (168 GPCRs [8]; 1 uM): -8.1%; activity at 10 µM (168 GPCRs [8]; 10 uM): -16.6%; activity at 10 µM (168 GPCRs [9]; Antagonist mode, 10 uM): 11.2%; activity at 1 µM (168 GPCRs [9]; Antagonist, 1 uM): 13.8%; activity at 10 µM (168 GPCRs [10]; HRH2, Antagonist mode, 10 uM): 8.1%; activity at 1 µM (168 GPCRs [10]; HRH2, Antagonist, 1 uM): 7.1%; activity at 10 µM (168 GPCRs [11]; HCRTR2, Antagonist mode, 10 uM): 2.4%; activity at 1 µM (168 GPCRs [11]; HCRTR2, Antagonist, 1 uM): 6.4%; activity at 10 µM (168 GPCRs [12]; PTGER3, Antagonist mode, 10 uM): 5.7%; activity at 1 µM (168 GPCRs [12]; PTGER3, Antagonist, 1 uM): -6.2%; activity at 10 µM (168 GPCRs [13]; OPRL1, Antagonist mode, 10 uM): 13.2%; activity at 1 µM (168 GPCRs [13]; OPRL1, Antagonist, 1 uM): 17.1%; activity at 10 µM (168 GPCRs [14]; FFAR1, Antagonist mode, 10 uM): -13.8%; activity at 1 µM (168 GPCRs [14]; FFAR1, Antagonist, 1 uM): -7.9%; activity at 1 µM (168 GPCRs [15]; 1 uM): 18.3%; activity at 10 µM (168 GPCRs [15]; 10 uM): 10.1%; activity at 10 µM (168 GPCRs [16]; GALR2, Antagonist mode, 10 uM): 1.5%; activity at 1 µM (168 GPCRs [16]; GALR2, Antagonist, 1 uM): 7%; activity at 10 µM (168 GPCRs [17]; DRD5, Antagonist mode, 10 uM): -2.6%; activity at 1 µM (168 GPCRs [17]; DRD5, Antagonist, 1 uM): -5.9%; activity at 10 µM (168 GPCRs [18]; GPR92, Antagonist mode, 10 uM): 5.8%; activity at 1 µM (168 GPCRs [18]; GPR92, Antagonist, 1 uM): -8%; activity at 1 µM (168 GPCRs [19]; 1 uM): -4.3%; activity at 10 µM (168 GPCRs [19]; 10 uM): -3.3%
